Results as given in patent US8383637B2, “2-amino-quinazoline derivatives useful as inhibitors of β-secretase (BACE)” (Jansssen Pharmaceutica N.V., priority 2004, dated 2013).
Where “and” joins values, the source holds several entries; their conditions need not be identical. Equal entries are not always repeated. Where two headings read alike, the source gives them in different places.

Experiments:
[1] = target: T1, β-secretase(BACE) (Homo sapiens, UniProt P56817); assay: BACE Assay-2 (FS1 substrate, IC50 and Ki); format: biochemical; conditions: procedure of Example 159, FS1 substrate; read-out: Ki μM (159)
T1 construct: purchased Panvera
T1 sequence (P56817 46-501): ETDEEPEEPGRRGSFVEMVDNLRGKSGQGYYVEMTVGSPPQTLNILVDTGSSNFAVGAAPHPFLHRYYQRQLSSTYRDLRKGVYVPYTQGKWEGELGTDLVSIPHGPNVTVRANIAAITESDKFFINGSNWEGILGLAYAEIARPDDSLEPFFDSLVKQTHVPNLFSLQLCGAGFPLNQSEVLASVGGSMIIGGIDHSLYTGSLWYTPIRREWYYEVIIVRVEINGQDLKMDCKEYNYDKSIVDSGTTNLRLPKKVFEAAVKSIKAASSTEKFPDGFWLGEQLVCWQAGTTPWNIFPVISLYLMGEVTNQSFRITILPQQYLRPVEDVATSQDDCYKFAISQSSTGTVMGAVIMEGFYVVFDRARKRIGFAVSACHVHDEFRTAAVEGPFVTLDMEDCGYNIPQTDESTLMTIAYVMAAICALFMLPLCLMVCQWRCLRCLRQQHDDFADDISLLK

[2] = target: T1, β-secretase(BACE); assay: BACE FS1% Inhibition Assay; format: biochemical; conditions: FS1 substrate
In short: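 Percent inhibition at each tested concentration, referenced to enzyme-free blank and vehicle-only positive control. Reaction: compound and BACE (4 μg/mL working stock) mixed 20 min at room temperature before FS1 substrate (300 μg/mL working stock), then 1 h at room temperature.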

[3] = 0.3 μM test compound, read-out: % Inhibition (FS) 0.3 μM
[4] = 1 μM test compound, read-out: % Inhibition (FS) 1 μM
[5] = 3 μM test compound, read-out: % Inhibition (FS) 3 μM
[6] = 0.3 μM test compound, read-out: % Inhibition (FS)
[7] = 1 μM test compound, read-out: % Inhibition (FS)
[8] = 3 μM test compound, read-out: % Inhibition (FS)

Row | Structure (SMILES) | Ki [1] | inhibition at 0.3 µM [2, 3] | inhibition at 1 µM [2, 4] | inhibition at 3 µM [2, 5] | inhibition at 0.3 µM [2, 6] | inhibition at 1 µM [2, 7] | inhibition at 3 µM [2, 8] | also measured
1 | NC1=Nc2ccc(-c3c(F)cccc3F)cc2CN1CCNC(=O)C1CCCCC1 [Compound 629] | 0.13 µM | < 30% | 72% | 102% | – | – | – | –
2 | CN(C(=O)CCC(C1CCC(O)CC1)N1Cc2cc(Oc3ccccc3)ccc2N=C1N)C1CCCCC1 (centres unmarked) [Compound 632, 4-(2-Amino-6-phenoxy-4H-quinazolin-3-yl)-N-cyclohexyl-4-(4-hydroxy-cyclohexyl)-N-methyl-butyramide] | 0.0084 µM | 115% | 118% | 117% | – | – | – | –
3 | CN(C(=O)CC[C@@H](C(=O)N(C)C1CCCCC1)N1Cc2cc(Oc3ccccc3)ccc2N=C1N)C1CCCCC1 [Compound 634, (S)-enantiomer of 2-(2-Amino-6-phenoxy-4H-quinazolin-3-yl)-pentanedioic acid bis-(cyclohexyl-methyl-amide)] | 0.054 µM | 46% | 88% | 114% | – | – | – | –
4 | NC1=Nc2ccc(-c3ccccc3F)cc2CN1CCC(=O)NC1C2CC3CC(C2)CC1C3 (centres unmarked) [Compound 635] | 0.014 µM | 104% | 115% | 119% | – | – | – | –
5 | CN(C(=O)CC[C@@H](C1CCCCC1)N1Cc2cc(Oc3ccccc3)ccc2N=C1N)C1CCOCC1 [Compound 638] | 0.23 µM | 74% | 101% | 116% | – | – | – | –
6 | CC(C)CCC(=O)NCCN1Cc2cc(-c3ccccc3F)ccc2N=C1N [Compound 647] | 0.033 µM | 79% | 100% | 113% | – | – | – | –
7 | CC(C)CCC(=O)NCCN1Cc2cc(-c3ccccc3Cl)ccc2N=C1N [Compound 654] | 0.046 µM | 83% | 102% | 111% | – | – | – | –
8 | Cc1ccccc1-c1ccc2c(c1)CN(CCNC(=O)C1CCCC1)C(N)=N2 [Compound 657, Cyclopentanecarboxylic acid [2-(2-amino-6-o-tolyl-4H-quinazolin-3-yl)-ethyl]-amide] | 0.032 µM | 88% | 103% | 111% | – | – | – | –
9 | COC1CCCC(C(=O)NCCN2Cc3cc(-c4ccccc4Cl)ccc3N=C2N)C1 (centres unmarked) [Compound 692] | 0.13 µM | – | – | – | 46% | 90% | 116% | –
10 | Cc1ccccc1-c1ccc2c(c1)CN(CCNC(=O)C1CCOCC1)C(N)=N2 [Compound 693] | 0.17 µM | – | – | – | 47% | 83% | 109% | –
11 | CN(C(=O)CC[C@@H](C1CCOCC1)N1Cc2cc(Oc3ccccc3)ccc2N=C1N)C1CCCCC1 [Compound 709, (S)-enantiomer of 4-(2-Amino-6-phenoxy-4H-quinazolin-3-yl)-N-cyclohexyl-N-methyl-4-(tetrahydro-pyran-4-yl)-butyramide] | 0.0065 µM | – | – | – | 141% | 143% | 139% | –
12 | CN(C(=O)CCC(C1CCCCC1)N1Cc2cc(Oc3ccccc3)ccc2N=C1N)C1CCC(O)CC1 (centres unmarked) [Compound 712] | 0.1 µM | – | – | – | 39% | 104% | 134% | –
13 | CN(C(=O)CC[C@@H](C1CCCCC1)N1Cc2cc(Oc3ccccc3)ccc2N=C1N)C1CCC(C(=O)O)CC1 (stereo partly drawn) [Compound 714, 4-{[4-(2-Amino-6-phenoxy-4H-quinazolin-3-yl)-4-(S)-cyclohexyl-butyryl]-methyl-amino}-cyclohexanecarboxylic acid] | 0.029 µM and 0.022 µM | – | – | – | 100% | 126% | 138% | % Inhibition (FS) ([2]; 0.3 μM test compound, 0.3 µM): 98%; % Inhibition (FS) ([2]; 1 μM test compound, 1 µM): 129%; % Inhibition (FS) ([2]; 3 μM test compound): 138%
14 | COc1ccccc1-c1ccc2c(c1)CN([C@@H](CCC(=O)N(C)CCC#N)C1CCCCC1)C(N)=N2 [Compound 720] | 0.3 µM | – | – | – | 72% | 93% | 138% | –
15 | COc1ccccc1-c1ccc2c(c1)CN([C@@H](CCC(=O)N(C)CCc1ccccc1)C1CCCCC1)C(N)=N2 [Compound 721, 4-[2-Amino-6-(2-methoxy-phenyl)-4H-quinazolin-3-yl]-4-(S)-cyclohexyl-N-methyl-N-phenethyl-butyramide] | 0.22 µM | – | – | – | 60% | 66% | 127% | –
16 | Cc1cc(CN(C)C(=O)CC[C@@H](C2CCCCC2)N2Cc3cc(-c4ccccc4F)ccc3N=C2N)on1 [Compound 723] | 0.23 µM | – | – | – | 47% | 63% | 111% | –
17 | CN(CCC#N)C(=O)CC[C@@H](C1CCCCC1)N1Cc2cc(-c3ccccc3F)ccc2N=C1N [Compound 725] | 0.45 µM | – | – | – | 33% | 74% | 126% | –
18 | CN(CCc1ccccc1)C(=O)CC[C@@H](C1CCCCC1)N1Cc2cc(-c3ccccc3F)ccc2N=C1N [Compound 727] | 0.43 µM | – | – | – | – | – | – | % Inhibition (FS) ([2]; 0.3 μM test compound): 46%; % Inhibition (FS) ([2]; 1 μM test compound): 80%; % Inhibition (FS) ([2]; 3 μM test compound): 137%
19 | CCCN1Cc2cc(Oc3cccc(NCc4ccc(C)cc4)c3)ccc2N=C1N [Compound 729] | 0.33 µM | – | – | – | 33% | 61% | 100% | –
20 | CN(C(=O)CC[C@@H](C1CCC2(CC1)OCCO2)N1Cc2cc(Oc3ccccc3)ccc2N=C1N)C1CCCCC1 [Compound 730, S-enantiomer of 4-(2-Amino-6-phenoxy-4H-quinazolin-3-yl)-N-cyclohexyl-4-(1,4-dioxa-spiro[4.5]dec-8-yl)-N-methyl-butyramide] | 0.054 µM | – | – | – | 93% | 109% | 114% | –
21 | CN(C(=O)CC[C@@H]([C@H]1CC[C@@H](O)CC1)N1Cc2cc(Oc3ccccc3)ccc2N=C1N)C1CCCCC1 [Compound 731, 4-(2-Amino-6-phenoxy-4H-quinazolin-3-yl)-N-cyclohexyl-4-(cis-4-hydroxy-cyclohexyl)-N-methyl-butyramide] | 0.087 µM | – | – | – | 56% | 114% | 132% | –
22 | CN(C(=O)CC[C@@H](C1CCC(=O)CC1)N1Cc2cc(Oc3ccccc3)ccc2N=C1N)C1CCCCC1 [Compound 732, (S)-enantiomer of 4-(2-Amino-6-phenoxy-4H-quinazolin-3-yl)-N-cyclohexyl-N-methyl-4-(4-oxo-cyclohexyl)-butyramide] | 0.01 µM | – | – | – | 135% | 135% | 133% | –
23 | NC1=Nc2ccc(Oc3ccccc3)cc2CN1[C@@H](CCC(=O)N(CCO)C1CCCCC1)C1CCCCC1 [Compound 736, (S)-enantiomer of 4-(2-Amino-6-phenoxy-4H-quinazolin-3-yl)-4,N-dicyclohexyl-N-(2-hydroxy-ethyl)-butyramide] | 0.013 µM | – | – | – | 125% | 134% | 135% | –
24 | CN(C(=O)CC[C@@H](C1CCCCC1)N1Cc2cc(Oc3ccccc3)ccc2N=C1N)[C@H]1CC[C@@H](C(=O)O)CC1 [Compound 739, (S)-enantiomer of 4-cis-{[4-(2-Amino-6-phenoxy-4H-quinazolin-3-yl)-4-cyclohexyl-butyryl]-methyl-amino}-cyclohexanecarboxylic acid] | 0.005 µM | – | – | – | 99% | 104% | 105% | –
25 | CN(C(=O)CC[C@@H](C1CCCCC1)N1Cc2cc(Oc3ccccc3)ccc2N=C1N)[C@H]1CC[C@H](C(=O)O)CC1 [Compound 740] | 0.037 µM | – | – | – | 82% | 98% | 104% | –
26 | CCOC(=O)C1CCC(N(C)C(=O)CCC(C2CCOCC2)N2Cc3cc(Oc4ccccc4)ccc3N=C2N)CC1 (centres unmarked) [Compound 742] | 0.168 µM | – | – | – | 17% | 63% | 101% | –
